Data from patent publication US20080311657A1, “Killing Human Lymphoma and Leukemia Cancer Cells and Tcr-Activated Normal Human Cells By Dopamine D1r Agonists” (priority 2005, published 2008).

Legend:
Type in all cases: cell-based
[1] = system: Human T-cell leukemia (Jurkat) cells; test: Number of living cells counted by flow cytometry (FACSort) after D1R agonist
[2] = system: Human Burkitt's B-lymphoma cells (Daudi); test: as above; settings: 10^−3M-10^−6M, 3 days
Method: Human Burkitt's B-lymphoma cells (Daudi) were seeded in 96 well plates (0.5 ml per well of 0.5 million cells/ml) and A 77636 hydrochloride was added and diluted 1:00 into the wells at starting concentrations of 10^−1M-10^−4M, so that the final concentration range tested was 10^−3M-10^−6M. […] Then, the number of living cells was evaluated by flow cytometry (the cells were counted by FACsort for a fixed time length of 1 min, in which 100 microliter of each sample was tested).
Human Burkitt's B-lymphoma cells (Daudi) were seeded in 96 well plates (0.5 ml per well of 0.5 million cells/ml) and A 68930 hydrochloride was added and diluted 1:00 into the wells at starting concentrations of 10^−1M-10^−4M, so that the final concentration range tested was 10^−3M-10^−6M. […] Then, the number of living cells was evaluated by flow cytometry (the cells were counted by FACsort for a fixed time length of 1 min, in which 100 microliter of each sample was tested).
[…] Then, the number of living cells was evaluated by flow cytometry (the cells were counted by FACsort for a fixed time length of 1 min, in which 100 microliter of each sample was tested).
(§1) Cell viability was tested afterwards.
The effect of dopamine itself (that can of course activate all its D1R-5 receptors) was also tested. All of these molecules were tested at a similar concentration (10^−4 M). […] The specificity and restriction of the effect to the D1R is also seen in Tables 7 and 8.

[3] = system: TCR-activated normal human T-cells; test: as above; settings: 10^−5 M, 72 hr
Method: (§2) FIGS. 31A and B are graphs showing that A 77636 hydrochloride kills much more TCR-activated (FIG. 31B) than resting normal (FIG. 31A) human T-cells. […] The cells were then transferred to the incubator for 72 hr incubation. At the end of the 72 hr incubation, the number of living cells in each well was evaluated by flow cytometry (the cells were counted by FACsort for a fixed time length of 1 min, in which 100 microliter of each sample was tested).
Non-tissue culture treated 24-well plates (Falcon, Franklin Lakes, N.J.) were coated overnight at 4° C. with anti-CD3 and anti-CD28 monoclonal antibodies (mabs) (BD Pharmingen, San Jose, Calif.); ([…] in PBS). The wells were then washed with PBS, blocked for 1 hour at 37° C. (PBS/1% BSA), and washed again. The freshly purified normal human T-cells were resuspended in their respective fresh media and seeded in the anti-CD3/CD28 coated wells (1×10^6 per well), and the plates were incubated for 72 hours (37° C., humidified incubator, 5% CO2). Then, the cells and their media were collected from each well, transferred into 50 ml tubes, centrifuged (1200 rpm, 10 minutes) and both the TCR-activated cells and their culture media were collected and transferred into clean separate tubes.
as §1

[4] = system: Human Burkitt's B-cell lymphoma (Raji) cells; test: as above; settings: 10^−3M-10^−6M, 3 days
Method: (§3) Afterwards, the microtiter plates were placed in an incubator (37° C., humidified incubator, 5% CO2) for 3 days. Then, the number of living cells was evaluated by flow cytometry (the cells were counted by FACsort for a fixed time length of 1 min, in which 100 microliter of each sample was tested).
as §1

[5] = system: Human Burkitt's B-lymphoma cells (Raji); test: Cell death by LDH release (CytoTox 96); settings: 10^−4M
Method: Human Burkitt's B-lymphoma cells (Raji) were seeded in 96 well plates (0.5 ml per well of 0.5 million cells/ml) and A 77636 hydrochloride was added and diluted 1:00 into the wells, at a fixed starting concentration of 10^−2M, so that the final concentration tested was 10^−4M. The cells were then transferred to an incubator (37° C., humidified incubator, 5% CO2) for 1 min, 10 min, 30 min, 60 min or 120 min incubation.

[6] = system: resting normal human T-cells; test: Number of living cells counted by flow cytometry (FACSort) after D1R agonist
Method: as §3, §2, §1

SMILES: Cl.NC[C@@H]1O[C@H](C23CC4CC(CC(C4)C2)C3)Cc2c1ccc(O)c2O [A 77636 hydrochloride, (1R-cis)-1-(aminomethyl)-3,4-dihydro-3-tricyclo[3.3.1.13,7]dec-1-yl-[1H]-2-benzopyran-5,6-diol hydrochloride]
- Cell death by number of living cells (FIGS. 10-12), in words ([1]; 10^−3M-10^−6M, 3 days): induces marked cell death
- Killing, in words ([1]; 10^−4M, 1 min incubation then washed, living cells counted 3 days later): not sufficient to cause marked cell death
- Killing, in words ([1]; 10^−4M, 15 minutes then washed, living cells counted 3 days later): significant
- % of the cells killed (maximum) ([1]; 10^−4M, 1 hour of incubation then washed, living cells counted 3 days later): 94%
- Killing, in words ([1]; 10^−4M, 72 hour incubation): no further effect
- Speed of cell death by number of living cells (FIG. 30), in words ([1]; 10^−4M, exposure 1 min, 15 min, 1 hr or 72 hr): very rapid death
- Cell death by number of living cells (FIGS. 16-18), in words [2]: induces marked cell death
- % of cells killed [3]: 46%
- Killing of TCR-activated relative to resting normal human T-cells [3]: 3.8 fold
- Cell death by number of living cells (FIGS. 19-21), in words [4]: induces marked cell death
- Exposure time at which extent of cell death reaches a plateau ([5]; LDH release): 1 h
- Elevation in the release of LDH ([5]; exposure for 1 minute): ≈ 3 fold
- Speed of cell death by LDH release (FIG. 28), in words ([5]; 1, 10, 30, 60 or 120 min): very rapid death
- Killing effect by number of living cells (FIGS. 25-27), in words ([6]; 10^−3M-10^−6M, 3 days): significantly milder killing effect
- % of cells killed ([6]; 10^−5 M, 72 hr): 12%
